Data: US12673953B2, “Process for preparing an amorphous form of 2-[3-[4-amino-3-(2-fluoro-4-phenoxyphenyl)pyrazolo[3,4-d]pyrimidin-1-yl]piperidine-1-carbonyl]-4-methyl-4-[4-(oxetan-3-yl)piperazin-1-yl]pent-2-enenitrile” (Principia Biopharma Inc., priority 2019, dated 2026)

What was measured:
Assay type in all cases: physicochemical
[1] = Thermogravimetric analysis (TA Instruments Q5000 TGA)
Procedure: Thermal gravimetric analysis of the samples was performed using the TA Instruments Q5000 TGA. Table 5 provides thermogravimetric analysis data for several distinct solid forms of Compound (I), including mass loss information from multiple replicates across different temperature ranges. As above, Comparator 1 corresponds to the solid form of Compound (I) prepared substantially in accordance with the process detailed in Step 1A in Example 1 of WO 2015/127310. Also, as above, Comparator 2 corresponds to the solid form of Compound (I) prepared substantially in accordance with the process detailed in Example 31 of WO 2014/039899. Comparator 3 corresponds to the solid form of Compound (I) prepared substantially in accordance with the process detailed in Step 1 in Example 1 of WO 2015/127310.

[2] = Wet particle size distribution by laser diffraction (Malvern Mastersizer 3000); conditions: dispersant heptane with 0.2% Span 80
Procedure: Wet particle size distributions were measured using a Malvern Mastersizer 3000 laser diffraction particle size analyzer, with stir speed set at 2200 rpm. Heptane with 0.2% by volume of Span 80 was used as dispersant. To obtain distribution measurements, the Hydro MV medium volume automated dispersion unit was filled with dispersant and aligned. The background was then measured. 80 to 100 mg of sample weighed into a 20 mL vial, to which approximately 3 mL of dispersant was added. The mass was adjusted based on the particle size, with obscuration between 5% and 16%. The whole sample was added to the Hydro MV unit, and the sample was analyzed five times after a 160 second pre-measurement delay. Analysis time was 20 seconds (10 seconds with the red laser, 10 seconds with the blue laser) with no delay between measurements. Data obtained was processed using Mie theory with a sample refractive index of 1.69 and absorption index of 0.1, using the general purpose model with normal sensitivity and the non-spherical particle type. 15 sets of raw data were averaged to form the Global Mean, which represents the average for a sample. If the sample was determined to be variable, further preparations were examined to determine which results were anomalous. Any anomalous results were discarded. Samples were thoroughly mixed prior to sampling (e.g., some samples were aliquoted using a spinning […]).

[3] = Mean bulk density, mean tapped density and Hausner ratio (modified USP <616>); conditions: for Hausner ratio: ratio of initial volume to constant volume (Vo/Vf)
Procedure: Mean bulk density and mean tapped density were determined using a modified method based on USP <616>. Powder was poured into a clean, dry pre-weighed 25 mL cylinder. Powder was added to a total volume of 20 mL to 25 mL without compacting the sample. The mass and initial volume (Vo) of the powder were recorded. The mean bulk density was determined as the average of the mass over initial volume across multiple samples. To determine mean tapped density, the sample was tapped using a Copley JV2000 tapped density tester using the following number of taps: 500, 750, and sets of 1250 taps up to 10,000. The volume was recorded after each set of taps, and the sample was tapped until it reached a constant volume (Vf). The mean tapped density was determined as the average of mass over constant volume across multiple samples. Each sample was analyzed in duplicate. The Hausner ratio was calculated as the ratio of initial volume to the constant volume (Vo/Vf).

[4] = Modulated differential scanning calorimetry, glass transition temperature (TA Instrument Q2000 DSC); conditions: for Tg at 25° C., 0% RH: 0% relative humidity
Procedure: Modulated differential scanning calorimetry (DSC) analysis was completed with a TA Instrument Q2000 DSC. The samples were heated at 2° C. min^−1, temperature modulation parameters of 0.318° C. (amplitude), and over a temperature range of 6-80° C. to 200° C. The samples were analyzed using a closed aluminum pan.

Compound | Wet particle size distribution D10 [2] [μm] | Wet particle size distribution D50 [2] [μm] | Wet particle size distribution D90 [2] | Mean bulk density [3] [g/cc] | Mean tapped density [3] [g/cc] | Hausner ratio [3] | Tg at 25° C., 0% RH [4] [°C] | further results
CC(C)(C=C(C#N)C(=O)N1CCCC(n2nc(-c3ccc(Oc4ccccc4)cc3F)c3c(N)ncnc32)C1)N1CCN(C2COC2)CC1 (stereo not shown) [Comparator 1, 2-[3-[4-amino-3-(2-fluoro-4-phenoxy-phenyl)pyrazolo[3,4-d]pyrimidin-1-yl]piperidine-1-carbonyl]-4-methyl-4-[4-(oxetan-3-yl)piperazin-1-yl]pent-2-enenitrile] | 18.3 | 237 | 694 μm | 0.28 | 0.39 | 1.4 |  | Mass loss during TGA ([1]; between 40° C. and 118° C.): 3.3% mass loss between 40 °C and 118 °C; Mass loss during TGA ([1]; between 118° C. and 237° C.): 3.2% mass loss between 118 °C and 237 °C
CC(C)(C=C(C#N)C(=O)N1CCCC(n2nc(-c3ccc(Oc4ccccc4)cc3F)c3c(N)ncnc32)C1)N1CCN(C2COC2)CC1 (stereo not shown) [Comparator 2, 2-[3-[4-amino-3-(2-fluoro-4-phenoxy-phenyl)pyrazolo[3,4-d]pyrimidin-1-yl]piperidine-1-carbonyl]-4-methyl-4-[4-(oxetan-3-yl)piperazin-1-yl]pent-2-enenitrile] | 56.9 | 258 | 575 μm | 0.20 | 0.27 | 1.4 | 90.1 | Mass loss during TGA ([1]; between 40° C. and 135° C.): 3.7% mass loss between 40 °C and 135 °C; Mass loss during TGA ([1]; between 135° C. and 233° C.): 2.3% mass loss between 135 °C and 233 °C
CC(C)(C=C(C#N)C(=O)N1CCCC(n2nc(-c3ccc(Oc4ccccc4)cc3F)c3c(N)ncnc32)C1)N1CCN(C2COC2)CC1 (stereo not shown) [Comparator 3, 2-[3-[4-amino-3-(2-fluoro-4-phenoxy-phenyl)pyrazolo[3,4-d]pyrimidin-1-yl]piperidine-1-carbonyl]-4-methyl-4-[4-(oxetan-3-yl)piperazin-1-yl]pent-2-enenitrile] |  |  |  |  |  |  | 90.1 | Mass loss during TGA ([1]; between 30° C. and 100° C.): 3.8% mass loss between 30 °C and 100 °C; Mass loss during TGA ([1]; between 100° C. and 140° C.): 17.6% mass loss between 100 °C and 140 °C
CC(C)(C=C(C#N)C(=O)N1CCCC(n2nc(-c3ccc(Oc4ccccc4)cc3F)c3c(N)ncnc32)C1)N1CCN(C2COC2)CC1 (stereo not shown) [Compound (I) prepared by a precipitation process described h] [2-[3-[4-amino-3-(2-fluoro-4-phenoxy-phenyl)pyrazolo[3,4-d]pyrimidin-1-yl]piperidine-1-carbonyl]-4-methyl-4-[4-(oxetan-3-yl)piperazin-1-yl]pent-2-enenitrile] | 1.9 |  | 476-683 μm |  |  | 1.2 |  | Mass loss during TGA ([1]; between 30° C. and 190° C.): 0.8% mass loss between 30 °C and 190° C.;; Mass loss during TGA ([1]; between 40° C. and 205° C.): 0.4% mass loss between 40 °C and 205° C.;; Mass loss during TGA ([1]; between 40° C. and 225° C.): 0.7% mass loss between 40 °C and 225 °C; Mass loss during TGA ([1]; between 43° C. and 230° C.): 1.9% mass loss between 43 °C and 230° C.;; Mass loss during TGA ([1]; between 44° C. and 230° C.): 1.0% mass loss between 44 °C and 230 °C; Tg at 25° C., 60% RH ([4]; 60% relative humidity, listed as Compound (I) prepared by precipitation process described herein (not micronized)): 69.6 °C
CC(C)(C=C(C#N)C(=O)N1CCCC(n2nc(-c3ccc(Oc4ccccc4)cc3F)c3c(N)ncnc32)C1)N1CCN(C2COC2)CC1 (stereo not shown) [Compound (I) prepared by a spray drying process described he] [2-[3-[4-amino-3-(2-fluoro-4-phenoxy-phenyl)pyrazolo[3,4-d]pyrimidin-1-yl]piperidine-1-carbonyl]-4-methyl-4-[4-(oxetan-3-yl)piperazin-1-yl]pent-2-enenitrile] | 5.24 | 13.3 | 28.4 μm | 0.20 | 0.28 | 1.4 |  | Mass loss during TGA ([1]; between 35° C. and 230° C.): 1.2% mass loss between 35 °C and 230 °C; Tg at 25° C., 0% RH ([4]; listed as Compound (I) prepared by spray drying process described herein): 93.8 °C
